Measurements taken from PMC3038857, “Using Nuclear Receptor Activity to Stratify Hepatocarcinogens” (PLoS ONE, 2011).
Like-named read-outs stand apart in the source and are kept apart here.

What was measured:
[1] = molecular target: T1, PPARG (peroxisome proliferator-activated receptor gamma) (Homo sapiens, UniProt P37231); experiment: ATG_PPARg_TRANS: Factorial reporter gene assay (HepG2); type: cell-based; details: HepG2
T1 construct: expressed in transfected cells; host or cells: HepG2
T1 sequence (P37231 1-505): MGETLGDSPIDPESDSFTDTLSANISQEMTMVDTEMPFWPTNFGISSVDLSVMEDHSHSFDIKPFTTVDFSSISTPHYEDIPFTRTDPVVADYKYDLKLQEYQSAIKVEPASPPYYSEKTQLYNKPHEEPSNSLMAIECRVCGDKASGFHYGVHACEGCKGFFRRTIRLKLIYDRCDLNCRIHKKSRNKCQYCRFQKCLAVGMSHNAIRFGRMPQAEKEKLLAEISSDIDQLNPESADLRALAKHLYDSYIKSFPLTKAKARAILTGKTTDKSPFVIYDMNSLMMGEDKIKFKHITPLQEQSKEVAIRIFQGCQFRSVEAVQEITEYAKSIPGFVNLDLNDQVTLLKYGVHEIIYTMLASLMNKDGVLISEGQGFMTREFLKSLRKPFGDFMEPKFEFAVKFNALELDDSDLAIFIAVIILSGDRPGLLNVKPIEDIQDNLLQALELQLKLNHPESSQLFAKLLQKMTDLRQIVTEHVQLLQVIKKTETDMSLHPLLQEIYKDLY
Summary of the method: (§1)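 Seven test concentrations were run, beginning at the MTC and diluted three-fold serially. PXRE activity came from cis reporters, a 48-site MRTU library in HepG2 hepatoma cells. ERRg, FXR and PPARg activity came from trans one-hybrid reporters, an additional 25-member MRTU set.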

Rat Liver [2] = details: ref ToxRefDB, cited from earlier work
[3] = molecular target: T2, AHR (aryl hydrocarbon receptor) (Homo sapiens, UniProt P35869); experiment: ATG_Ahr_CIS: Factorial reporter gene assay (multiplexed transcription reporter, HepG2); type: cell-based; details: HepG2
T2 construct: endogenous in cells; host or cells: HepG2
T2 sequence (P35869 11-848): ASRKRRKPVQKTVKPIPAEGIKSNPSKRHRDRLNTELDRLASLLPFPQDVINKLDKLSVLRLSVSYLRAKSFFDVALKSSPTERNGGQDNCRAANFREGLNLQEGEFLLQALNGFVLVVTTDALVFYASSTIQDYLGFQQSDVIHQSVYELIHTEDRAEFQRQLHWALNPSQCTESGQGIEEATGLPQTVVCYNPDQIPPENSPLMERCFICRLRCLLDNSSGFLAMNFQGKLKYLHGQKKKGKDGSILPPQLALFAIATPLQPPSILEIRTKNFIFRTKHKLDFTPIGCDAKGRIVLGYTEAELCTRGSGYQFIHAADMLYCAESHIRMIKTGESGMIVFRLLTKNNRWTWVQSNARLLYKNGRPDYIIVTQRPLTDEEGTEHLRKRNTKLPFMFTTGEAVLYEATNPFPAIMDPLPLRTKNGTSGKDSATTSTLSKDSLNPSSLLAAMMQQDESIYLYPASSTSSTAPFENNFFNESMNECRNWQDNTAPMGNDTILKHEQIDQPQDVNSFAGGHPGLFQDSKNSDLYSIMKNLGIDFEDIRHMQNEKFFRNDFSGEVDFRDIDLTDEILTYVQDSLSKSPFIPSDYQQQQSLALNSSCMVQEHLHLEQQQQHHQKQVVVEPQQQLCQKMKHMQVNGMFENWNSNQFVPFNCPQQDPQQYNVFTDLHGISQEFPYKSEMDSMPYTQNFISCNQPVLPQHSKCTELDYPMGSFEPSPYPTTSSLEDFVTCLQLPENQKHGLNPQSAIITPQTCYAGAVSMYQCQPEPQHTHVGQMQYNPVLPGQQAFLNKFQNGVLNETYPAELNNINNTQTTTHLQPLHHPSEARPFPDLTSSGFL
Description: (§2) A multiple reporter transcription unit (MRTU) library consisting of 48 transcription factor binding sites was transfected into the HepG2 human liver hepatoma cell line. In addition to the cis-acting reporter genes (CIS), a modification of the approach was used to generate a trans-system (TRANS) with a mammalian one-hybrid assay consisting of an additional 25 MRTU library reporting the activity of nuclear receptor super-family members. […] These assays were performed by Attagene Inc. (Morrisville NC) under contract to EPA.
(§3) In addition to the cis-acting reporter genes (CIS), a modification of the approach was used to generate a trans-system (TRANS) with a mammalian one-hybrid assay consisting of an additional 25 MRTU library reporting the activity of nuclear receptor super-family members. […] Chemicals were then tested in the CIS and TRANS assays at seven concentrations starting at the MTC and followed by three-fold serial dilutions. These assays were performed by Attagene Inc. (Morrisville NC) under contract to EPA. Detailed description of the methods, data and analysis methods for this dataset will be presented in a separate publication.

Rat Liver [4] = details: ref ToxRefDB, cited from earlier work; remark: listed apart in the source
Rat Liver [5] = details: ref ToxRefDB, cited from earlier work; remark: listed apart in the source
PXR (NR1I2) [6] = molecular target: T3, PXR (NR1I2) (Homo sapiens, UniProt O75469); experiment: NVS_NR_hPXR: Human PXR Fluormone PXR (SXR) green (cell-free HTS); type: binding
T3 sequence (O75469 1-434): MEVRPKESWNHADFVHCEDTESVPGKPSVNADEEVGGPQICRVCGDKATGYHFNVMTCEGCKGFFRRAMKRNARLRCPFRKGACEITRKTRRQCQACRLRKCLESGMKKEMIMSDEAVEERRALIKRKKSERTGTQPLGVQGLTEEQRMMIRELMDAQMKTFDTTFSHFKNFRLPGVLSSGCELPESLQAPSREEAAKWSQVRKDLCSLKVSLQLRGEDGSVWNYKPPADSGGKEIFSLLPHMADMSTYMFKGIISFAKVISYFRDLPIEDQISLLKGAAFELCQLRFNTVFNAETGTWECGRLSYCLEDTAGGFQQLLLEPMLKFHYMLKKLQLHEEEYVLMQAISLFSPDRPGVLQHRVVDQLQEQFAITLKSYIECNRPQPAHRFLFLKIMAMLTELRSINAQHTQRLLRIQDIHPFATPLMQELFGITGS
Text: These are a collection of biochemical assays measuring binding constants and enzyme inhibition values. Chemicals were initially screened at a single concentration in duplicate wells at a concentration of 10 [drawing 63] M for cytochrome P-450 assays and 25 [drawing 64] M for all others. […] These assays were run by Caliper Life Sciences (Hanover, MD) under contract to EPA. Short assay descriptions are available at: http://www.caliperls.com/products/contract-research/in-vitro/.
Cell-free HTS Assays: A collection of biochemical assays measuring binding constants and enzyme inhibition values. […] These assays were run by Caliper Life Sciences (Hanover, MD) under contract to EPA. Short assay descriptions are available at http://www.caliperls.com/products/contract-research/in-vitro/. Values for all endpoints were imported into GeneData Screener (Basel, Switzerland) and normalised to solvent controls from the same plate as the tested compounds and expressed as percent of neutral control. Concentration-response curves were fit in GeneData Screener (Basel, Switzerland) Condeseo module using the Hill equation and AC50 values were determined. […] Detailed description of the methods, data and analysis methods for this dataset are described in a separate publication.

PXR (NR1I2) [7] = molecular target: T3, PXR (NR1I2); experiment: ATG_PXRE_CIS: Factorial reporter gene assay (HepG2); type: cell-based; parameters: endogenous in cells; host or cells: HepG2
Summary of the method: as §1

PXR Human (NR1I2) = molecular target: T4, PXR Human (NR1I2) (Homo sapiens, UniProt O75469); experiment: NCGC_PXR_Agonist_human: GAL4 BLAM Reporter gene assay: PXR Human; type: cell-based; details: agonist mode
T4 sequence (O75469 146-434 limits assumed): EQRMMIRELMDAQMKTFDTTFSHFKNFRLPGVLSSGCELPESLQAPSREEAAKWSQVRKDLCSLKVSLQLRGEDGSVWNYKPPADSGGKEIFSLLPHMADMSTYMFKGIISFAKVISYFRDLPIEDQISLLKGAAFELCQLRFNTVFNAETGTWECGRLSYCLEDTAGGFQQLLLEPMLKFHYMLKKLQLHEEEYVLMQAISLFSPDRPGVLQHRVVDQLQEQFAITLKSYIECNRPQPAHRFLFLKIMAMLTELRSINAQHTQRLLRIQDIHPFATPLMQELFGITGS
Description: These assays measure binding constants and enzyme inhibition values for nuclear receptors. The targets include [drawing 67] , [drawing 68] , [drawing 69] , [drawing 70] , [drawing 71] , [drawing 72] , [drawing 73] , [drawing 74] , [drawing 75] and [drawing 76] . Each of the nuclear receptor targets was measured in agonist mode. Assays were run at the NIH Chemical Genomics Center (Rockville, MD).
Cell-based HTS Assays: These assays measuring binding constants and enzyme inhibition values for nuclear receptors. The targets include AR, ER, FXR, LXR, PPARα, PPARδ, PPARγ, RXRα, RXRβ and PXR. Each of the nuclear receptor targets was measured in both agonist and antagonist mode, but the antagonist data is still undergoing analysis due to possible interference between cytotoxicity and assay activity, so antagonist mode data were not used in the present analysis. Assays were run at the NIH Chemical Genomics Center (Rockville, MD) as part of the Tox21 collaboration. […] The R^2 was required to be ≥0.5. Values where only the highest concentration exceeded 50% activity were excluded to eliminate weak or false positives. Detailed description of the methods, data and analysis methods for this dataset will be presented in a separate publication.

CYP3A4 = experiment: CLZD_CYP3A4: Change in expression of CYP3A4 (primary human hepatocytes); type: cell-based; details: 24 hr
Summary of the method: (§4)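 Five-point concentration series (0.004-40 µM) applied to primary human hepatocytes; 6/24/48 hr timepoints; transcript quantified by multiplexed nuclease protection.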

PXR (NR1I2) [8] = molecular target: T3, PXR (NR1I2); experiment: ATG_PXR_TRANS: Factorial reporter gene assay (HepG2); type: cell-based; parameters: endogenous in cells; host or cells: HepG2; details: HepG2
Summary of the method: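 HepG2 cells transfected with multiplexed reporter libraries: cis-acting binding-site reporters (CIS) and a one-hybrid nuclear-receptor trans system (TRANS). Chemicals tested at seven concentrations, starting at the maximum tolerated concentration with three-fold serial dilutions.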

CYP2B6 = experiment: CLZD_CYP2B6: Change in expression of CYP2B6 (primary human hepatocytes); type: cell-based; details: 24 hr
Summary of the method: as §4

Mouse Liver [9] = details: ref ToxRefDB, cited from earlier work
[10] = molecular target: T5, ESR1 (estrogen receptor 1) (Homo sapiens, UniProt P03372); experiment: ATG_ERa_TRANS: Factorial reporter gene assay (HepG2); type: cell-based
T5 construct: expressed in transfected cells; host or cells: HepG2
T5 sequence (P03372 whole entry): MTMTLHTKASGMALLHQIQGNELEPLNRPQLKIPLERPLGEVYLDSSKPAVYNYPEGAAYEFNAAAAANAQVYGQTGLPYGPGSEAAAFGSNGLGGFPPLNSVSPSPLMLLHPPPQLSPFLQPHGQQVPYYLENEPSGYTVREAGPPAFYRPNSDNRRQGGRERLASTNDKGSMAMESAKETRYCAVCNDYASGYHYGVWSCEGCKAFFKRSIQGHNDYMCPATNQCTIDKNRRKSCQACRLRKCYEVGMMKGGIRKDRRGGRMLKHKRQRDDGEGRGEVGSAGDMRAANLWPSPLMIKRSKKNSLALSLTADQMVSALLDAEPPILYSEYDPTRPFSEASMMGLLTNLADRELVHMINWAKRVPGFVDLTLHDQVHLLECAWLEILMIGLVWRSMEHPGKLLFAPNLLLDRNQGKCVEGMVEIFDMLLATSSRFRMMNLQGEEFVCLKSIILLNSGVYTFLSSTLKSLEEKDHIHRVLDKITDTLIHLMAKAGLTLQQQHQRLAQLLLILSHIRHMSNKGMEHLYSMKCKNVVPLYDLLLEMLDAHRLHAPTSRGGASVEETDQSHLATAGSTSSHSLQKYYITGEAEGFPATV
Description: as §2, §3

CYP1A2 = experiment: CLZD_CYP1A2: Change in expression of CYP1A2 (primary human hepatocytes); type: cell-based; details: 24 hr
Summary of the method: as §4

Mouse Liver [11] = details: chronic study, mouse liver; ref ToxRefDB; cited from earlier work
Mouse Liver [12] = details: chronic study, mouse liver; ref ToxRefDB; cited from earlier work; remark: listed apart in the source

SMILES | ATG_PPARg_TRANS [1] | ATG_Ahr_CIS [3] | ATG_PXRE_CIS (PXR (NR1I2) [7]; HepG2) | CHR_Rat_Liver_2_PreneoplasticLesion (Rat Liver [2]; chronic rat study, liver) | CHR_Rat_Liver_1_AnyLesion (Rat Liver [4]; chronic rat study, liver) | NCGC_PXR_Agonist_human (PXR Human (NR1I2)) | CHR_Rat_Liver_3_NeoplasticLesion (Rat Liver [5]; chronic rat study, liver) | CLZD_CYP3A4_24 (CYP3A4) | CLZD_CYP2B6_24 (CYP2B6) | also measured
CCC(=O)C1C(=O)CC(C(=O)[O-])CC1=O.CCC(=O)C1C(=O)CC(C(=O)[O-])CC1=O.[Ca+2] (centres unmarked) [r254] | 4.409 | 4.215 |  |  |  |  |  |  |  | CHR_Rat_Liver_2_PreneoplasticLesion (Rat Liver [2]; rat, chronic study): 0; CHR_Rat_Liver_1_AnyLesion (Rat Liver [4]; rat, chronic study): 0; CHR_Rat_Liver_3_NeoplasticLesion (Rat Liver [5]; rat, chronic study): 0
CCCN(CCC)c1c([N+](=O)[O-])cc(S(N)(=O)=O)cc1[N+](=O)[O-] [row 224] |  |  | 5.921 | 0 | 0 | 5.133 | 0 | 4.897 | 4.989 | NVS_NR_hPXR (PXR (NR1I2) [6]): 5.395; ATG_PXR_TRANS (PXR (NR1I2) [8]): 5.538
CCCCC(C#N)(Cn1cncn1)c1ccc(Cl)cc1 (centres unmarked) [row 217] |  |  | 4.886 | 0 | 6 |  | 0 | 5.217 | 4.948 | CHR_Mouse_Liver_1_AnyLesion (Mouse Liver [9]; chronic mouse study, liver): 6; ATG_ERa_TRANS ([10]; HepG2): 4.398; CLZD_CYP1A2_24 (CYP1A2): 5.223
Cc1c(F)c(F)c(COC(=O)C2C(/C=C(\Cl)C(F)(F)F)C2(C)C)c(F)c1F (centres unmarked) [r294] |  |  |  |  |  |  |  |  |  | ATG_PXRE_CIS (PXR (NR1I2) [7]; HepG2 reporter): 4.886; CHR_Rat_Liver_2_PreneoplasticLesion (Rat Liver [2]; chronic study, rat liver): 0; CHR_Rat_Liver_1_AnyLesion (Rat Liver [4]; chronic study, rat liver): 0; CHR_Mouse_Liver_3_NeoplasticLesion (Mouse Liver [11]): 6; CHR_Mouse_Liver_1_AnyLesion (Mouse Liver [9]; chronic study, mouse liver): 6; CHR_Rat_Liver_3_NeoplasticLesion (Rat Liver [5]; chronic study, rat liver): 0; CHR_Mouse_Liver_2_PreneoplasticLesion (Mouse Liver [12]): 6; ATG_ERa_TRANS ([10]; HepG2 reporter): 4.31
CNC(=S)[S-].O.O.O.[Na+] [row 197] | 4.569 | 4.444 | 4.167 |  |  | 4.503 |  |  |  | 
